Where “and” joins values, the source holds several entries; their conditions need not be identical. Equal entries are not always repeated.
What was measured:
Beclin-1 = assay: Western blot, Beclin-1 in HCT-15 cells; assay type: cell-based, human; settings: HCT-15, increasing concentration, p < 0.01
Protocol: (§1) The protein levels in HCT-15 cells were evaluated via Western blot analysis. The cells were cultured in dishes (10^7 cells per dish) and incubated overnight at 37 °C, 0.625, 1.25, 2.5, and 5 μM of 16 was added in triplicate after 24 h of incubation. Then, the cells were harvested and lysed in Laemmli buffer (glycerol, 1M TRIS pH 6.8, 1% SDS, MQ H2O and 20% β-mercaptoethanol). The samples were boiled for 5 min at 95 °C, and the protein content was determined using a BCA kit. Equal amounts of 30 μg of sample were placed on a Tris/HCl gel and separated by SDS-PAGE electrophoresis. Then, the samples were transferred to a PVDF membrane (Milibo, Co., Ltd., Billyka, MA, USA) and blocked with 5% skimmed milk powder for 2 h. Diluted primary antibodies Bcl-2 (1:3000), Bax (1:10,000), caspase-3 (l:2000), p62 (1:1000), Beclin1 (1:1000), LC3 (1:2000), and β-actin (1:1000) were incubated overnight at 4 °C, followed by a horseradish peroxidase-conjugated goat anti-rabbit IgG secondary antibody (ProteinTech, China) for 2 h at room temperature. Then, immunoreactivity was developed with diaminobenzidine solution, and scanned and recorded by a gel imaging system (G:BOX Chemi XL1.4, Frederick, MD, USA).

HCT-15 cells [1] = assay: Colony formation assay; assay type: cell-based, human; settings: HCT-15, 0.625 μM, 10 d
Protocol: HCT-15 cells were diluted in 2 mL of culture medium and plated in six-well plates at 37 °C in 5% CO2. After an overnight incubation, compound 16 (0.625, 1.25, 2.5, 5, and 10 μM) was added, and the cells were cultured for 10 d. Afterwards, the medium was replaced. The cells were washed by cold PBS and fixed with 4% paraformaldehyde. Finally, the cell colonies were stained with a 1% crystal violet solution for 20 min. The plates were recorded, and the colonies were counted digitally using ImageJ software with customized macros.

Bax/Bcl-2 = assay: Western blot, Bax/Bcl-2 in HCT-15 cells; assay type: cell-based, human; settings: HCT-15, only at 5 μM, p < 0.05
Protocol: as §1

[2] = Aqueous solubility determination by HPLC; assay type: physicochemical; settings: neutral water, vs TET
Protocol: Briefly, each tested compound (10 mg) was dissolved in 10 mL of CH3OH, and the standard solution (0.5 mL) was used to determine the wavelength of maximum absorbance by HPLC. The solution was diluted as necessary, and the solubility was determined by linear regression with R^2 > 0.999. Each tested compound (5 mg) was ultrasound dissolved in 3 mL of pure water for 1 h at room temperature, and the mixture was then […] at 3000 rpm for 15 min. The saturated supernatants were determined by HPLC at the wavelength of the maximum absorption, and the absorbances were obtained. The solubility was calculated according to the standard curve.

[3] = tested on: microtubule-associated protein 1 light chain 3 (LC3); assay: Western blot, LC3-II/LC3-I in HCT-15 cells; assay type: cell-based, human; settings: HCT-15, 0.625, 1.25, 2.5, and 5 μM, p < 0.05
Protocol: as §1

[4] = Live/dead FDA/PI double staining, HUVEC; assay type: cell-based; settings: human, HUVEC cells, read-out: Viable cell percentage
Protocol: HCT-15 or HUVEC cells were cultured in six-well plates for 24 h. The cells were washed with PBS and incubated with medium containing 0.625, 1.25, 2.5, 5, and 10 μM of 16 for 48 h. Afterwards, the medium was replaced, and the cells were washed twice with PBS, resuspended in the solution containing 100 μL FDA (0.02 mg/mL, Sigma, St. Louis, MO, USA) and 30 μL PI (0.02 mg/mL, Sigma, St. Louis, MO, USA), and treated in the dark at room temperature for 10 min. The cells were imaged with a fluorescence microscope (Nikon ECLIPSE TE2000-U, Tokyo, Japan).

[5] = tested on: human umbilical vein endothelial cells (HUVEC); assay: MTT antiproliferative assay, HUVEC; assay type: cell-based; settings: 72 h
Protocol: (§2) Human lung cancer cell (A549,), human umbilical vein endothelial cells (HUVECs,), human colon cancer cell lines (HCT-15), human breast cancer cells (MCF-7), human liver cancer cells (HepG2), human pancreatic cancer cells (BxPC-3), and human hepatic cell line (L-02) were obtained from the Sichuan University. A549, HUVECs, and L-02 were cultured in DMEM medium (high glucose, HyClone, GE Healthcare, Sydney, Australia). Human colon cancer cell lines HCT-15, human pancreatic cancer cells […] BxPC-3 were cultured in RPMI-1640. Human breast cancer cells MCF-7 and human liver cancer cells HepG2 were cultured in MEM medium. All the mediums, including 10% fetal bovine serum (FBS, HyClone, GE Healthcare, Sydney, Australia) and 1% ampicillin/streptomycin, were used to culture the above cells at 37 °C in a humidified atmosphere (5% CO2 and 95% air).
(§3) The antiproliferative activity of the title compounds was determined using the MTT (3-(4,5-dimethylthiazol-2-yl)-2,5-diphenyltetrazolium bromide, Sigma-Aldrich, Saint Louis, MO, USA) assay on different cells. Cells lines were seeded into 96-well plates at a density of 2000 to 6000 cells/well. DMSO was used to dissolve the test compounds, and TET was used as a positive control. After 24 h, the test compounds were added at different concentrations (0.625, 1.25, 2.5, 5, 10, and 20 μM) and incubated at 37 °C for 72 h. MTT was added to each well at a final concentration of 0.5 mg/mL and incubated at 37 °C for 4 h. Then, 150 μL of DMSO was added to each well to dissolve the formazan crystals. The absorbance was measured at 570 nm by a microplate reader (ELX800UV, Bio-Tek, Windoski, VT, USA). All measurements were repeated at least three times under the same conditions. Graphpad Prism 8.0 was used to calculate the IC50 values.

[6] = tested on: human breast cancer cells (MCF-7); assay: MTT antiproliferative assay, MCF-7; assay type: cell-based
Protocol: as §2, §3

HCT-15 cells [7] = assay: Flow cytometry Annexin V-FITC/PI apoptosis analysis; assay type: cell-based, human; settings: 48 h
Protocol: HCT-15 cells were cultured in complete medium in six-well plates for 24 h, and […]. 2.5, 5 μM of 16 was added in triplicate for 48 h incubation. The cells were digested with trypsin without EDTA, washed twice with cold PBS, and resuspended in 500 μL binding buffer. The cell suspension was stained successively with 5 μL Annexin V-FITC and 5 μL PI (Keygen Biotech, Nanjing, China), and cultured for 15 min and 5 min in total dark, respectively. Afterwards, the percentages of apoptotic cells were determined by a flow cytometry. Data were analyzed by FlowJo software (Version 10, FlowJo, LLC, Ashland, OR, USA).

Increase of aqueous solubility compared to TET [2]: > 5 fold and 5 fold
IC50 ([6]; 72 h): 1.46 ± 0.13 µM
IC50 ([6]; Homo sapiens, MCF7, 72 h): < 1.5 µM
Compound: COc1cc(NC(=O)[C@@H]2CCCN2)c2cc1Oc1ccc(cc1)C[C@H]1c3cc(c(OC)cc3CCN1C)Oc1c(OC)c(OC)cc3c1[C@H](C2)N(C)CC3 [Compound 16, 14-N-(L-proline)-tetrandrine]
Beclin-1 level (Beclin-1): markedly enhanced
Colony formation (HCT-15 cells [1]): very few colonies
Ratio of Bax/Bcl-2 (Bax/Bcl-2): enhanced
Ratio of LC3-II to LC3-I [3]: increased
viability at 48 h, 5 µM ([4]; 5 μM): 1.9%
viability at 48 h, 10 µM ([4]; 10 μM): 0.1%
IC50 [5]: 1.48 ± 0.01 µM
Apoptotic rate (HCT-15 cells [7]; HCT-15, 2.5 μM): 25.4%
Apoptotic rate (HCT-15 cells [7]; HCT-15, 5 μM): 52.7%
Necrotic rate (HCT-15 cells [7]; HCT-15, 5 μM): 35.5%

Reference: article PMC9268013, “Design, Synthesis, and Biological Evaluation of N14-Amino Acid-Substituted Tetrandrine Derivatives as Potential Antitumor Agents against Human Colorectal Cancer” (Molecules, 2022)
